Results: US20230286983A1 (4E Therapeutics, Inc., priority 2020, published 2023)

Tested on: IL-6 evoked grimace
Assay: IL-6 evoked grimace test
Assay type: in vivo, ICR mice
Protocol: Institute for Cancer Research (ICR) mice were used in these experiments. Mice were bred in house at University of Texas at Dallas and used at between 12 and 24 weeks of age. Mice were habituated to plexiglass boxes of approximately 4×6 inches in size with openable tops. Habituation took place over 2 days with animals exposed to the boxes for at least 30 min. A blinded observer scored baseline grimacing using the method previously described by Mogil and colleagues (Langford, et al., Coding of facial expressions of pain in the laboratory mouse. Nat Methods (2010) 7:447-449.). On test day, mice were given test compounds 1 hr prior to injection of interleukin 6 (human recombinant IL-6, R&D Systems) which was given at a dose of 0.1 ng in saline via an intraplantar injection as described previously (Moy et al. The MNK-eIF4E Signaling Axis Contributes to Injury-Induced Nociceptive Plasticity and the Development of Chronic Pain. J Neurosci (2017) 37:7481-7499.). Test compounds were given orally (PO) via a flexible oral gavage canula built for mice. 4ET-01-021 (10.0, 3.0, and 1.0 mg/kg) and 4ET-03-052B (10.0 mg/kg) are efficacious in the IL-6 evoked grimace test in mice. FIG. 5 depicts a comparison of effect size in the IL-6 evoked grimace test. Effect sizes were calculated per mouse by subtracting the baseline grimace score from the sum of the grimace scores for 1 and 3 hr time points. […] FIG. 6 is a graph showing the effect size in the IL-6 evoked grimace test vs. dose of 4ET-01-021.

## CCC1=CC2(CCC1)NC(=O)c1c(C)cc(Nc3cc(N)ncn3)c(=O)n12 (stereo not drawn) [Compound 4ET-01-021, 6′-((6-Aminopyrimidin-4-yl)amino)-3-ethyl-8′-methyl-2′H-spiro[cyclohexane-1,3′-imidazo[1,5-a]pyridin]-2-ene-1′,5′-dione]
Mus musculus, PO, effect size vs. dose
  ED50: 0.4 mg/kg
PO 1 hr prior to IL-6, 4ET-01-021 10.0, 3.0 and 1.0 mg/kg, 4ET-03-052B 10.0 mg/kg
  efficacy in the IL-6 evoked grimace test: efficacious
Sum of grimace scores at 1 and 3 hr minus baseline
  effect size in the IL-6 evoked grimace test: statistically-significant effect sizes
